Patent publication US7157107B2, “Method for producing eggs with low cholesterol level” (priority 2004, dated 2007)
Like-named read-outs stand apart in the source and are kept apart here.

Assays:
Hy-line laying hens = test: Monacolin K residue remained in eggs (HPLC); type: in vivo, hen; conditions: hens fed basal diet containing 0.056% monacolin K (highest red mold rice content) for 42 days, FIG. 3
Protocol: The method for determining whether there is any monacolin K residue remained comprised the following steps. 20 mL acetonitrile-water (9:1, v/v) is added into 10 grams of egg samples (including yolk samples and albumen samples which are separated from eggs laid by hens fed with red mold rice of the highest content for 42 days), vibrated for 60 min through ultrasonic vibration, stirred and mixed for 15 min. Then, after the solid is separated off through a Whatman No. 1 filter paper, equal volume of acetonitrile is added into a 4 mL egg sample, filtered via a filter membrane of 0.45 μm pore size, and analyzed thgrough HPLC. The operating conditions for performing HPLC analysis were described as above.

hens = conditions: cited from earlier work

CC[C@H](C)C(=O)O[C@H]1C[C@@H](C)C=C2C=C[C@H](C)[C@H](CC[C@@H]3C[C@@H](O)CC(=O)O3)[C@H]21 [lovastatin]
Monacolin K residue in eggs (yolk and egg white) (Hy-line laying hens): no monacolin K residue | Lowering of egg cholesterol concentration (hens; 0.0005% lovastatin, hens of 30 weeks old, feed for 12 weeks (Mori et al.)): 7.5% | Lowering of egg cholesterol concentration (hens; 0.0015% lovastatin, hens of 30 weeks old, feed for 12 weeks (Mori et al.)): 12.7% | Decrease in egg cholesterol concentration (hens; 0.0035% lovastatin, hens of 69 weeks old, feed for 5 weeks (Luhman et al.)): no significant decrease | Lowering of egg cholesterol concentration (hens; 0.03% lovastatin, hens of 18 weeks old, feed for 5 weeks (Elkin and Yan)): 4% | Lowering of egg cholesterol concentration (hens; 0.06% lovastatin, hens of 18 weeks old, feed for 5 weeks (Elkin and Yan)): 7% | Decrease of egg cholesterol (hens; 0.2407% lovastatin in feed for 9 days (Elkin and Rogler)): 13%
